We go through 1 compound from PMC11442132, “Discovery of β‐nitrostyrene derivatives as potential quorum sensing inhibitors for biofilm inhibition and antivirulence factor therapeutics against Serratia marcescens” (mLife, 2024).

The assay concerns the target T1, SmaR (Serratia marcescens, UniProt Q14RS3).
T1 construct: pure recombinant protein
The experiment in a line: microscale thermophoresis. The assay is classed as binding.

T1 sequence (Q14RS3 1-248): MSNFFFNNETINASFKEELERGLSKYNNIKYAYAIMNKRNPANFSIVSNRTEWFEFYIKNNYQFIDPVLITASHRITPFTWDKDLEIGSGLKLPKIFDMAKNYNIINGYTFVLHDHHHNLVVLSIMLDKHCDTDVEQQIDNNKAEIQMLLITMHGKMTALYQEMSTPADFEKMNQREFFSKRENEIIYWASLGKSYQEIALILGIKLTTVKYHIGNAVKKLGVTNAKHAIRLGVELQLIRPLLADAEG

A word on the Kd: it is the constant that tells how readily two partners part at equilibrium. A low value points to a tighter complex. Consider `Cc1ccc(/C=C/[N+](=O)[O-])cc1` [compound 28, (E)‐1‐methyl‐4‐(2‐nitrovinyl)benzene], for which the Kd is 38.9 µM.
